The structures appear in SMILES notation.

The test system of one test is MDA-MB-231 (breast). The test can be described thus: In vitro cytotoxic activity MTT assay, MDA-MB-231. The following applies: Homo sapiens; MDA-MB-231 cells, exposed for 96 hours, 50% inhibition of cell proliferation; read-out: Cytotoxicity activity IC50, MDA-MB-231 (breast). In kind it is cell-based. The procedure: (§1) Compounds 1-16 were screened for their in vitro cytotoxic activity utilizing a 3-(4,5-dimethyl-thiazol-2-yl)-2,5-diphenyltetrazolium bromide (MTT) assay against selected cancer human cell lines consisting of PC3 (prostate), HCT116 (colon), A375 (melanoma), H1299 (lung), MIAPaCa-2 (pancreas), HL60 (leukemia), MCF7 (breast), MDA-MB-231 (breast) (T. Mosmann, J. Immunol. Meth., 1983, 65, 55-63). The cells were cultured at 37° C. in RMPI1640 medium supplemented with 10% fetal bovine serum, 50 IU/mL penicillin, and 50 μg/mL streptomycin in a 5% CO2 incubator. All cells were sub-cultured 3 times/week by trypsinisation. Viable cells were seeded and allowed to adhere for 12 hours before a test drug was added in 96-well plates at an initial density of 1.0×10^5 cells/mL. Tumor cell lines were separately exposed to various concentrations of the tested compounds followed by incubation at a temperature of 37° C. during 96 hours inside a medium of fresh RMPI 1640. Cells were subsequently incubated at 37° C. using MTT at 0.5 mg/mL during 4 hours. After removal of supernatant, formazan crystals were dissolved in isopropanol and the optical density was measured at 570 nm. CX-4945 was used as a positive control.
For orientation: Formazan colour is commonly taken as a measure of viable cells.

A further test has as its system HL60 (leukemia). The test can be described thus: In vitro cytotoxic activity MTT assay, HL60. In kind it is cell-based. The following applies: Homo sapiens, HL-60; HL60 cells, exposed for 96 hours, 50% inhibition of cell proliferation; read-out: Cytotoxicity activity IC50, HL60 (leukemia). How it is done: as §1
The subject of a further test is A375 (melanoma). The experiment in a line: In vitro cytotoxic activity MTT assay, A375. The test is classed as cell-based. The following applies: Homo sapiens, A-375; A375 cells, exposed for 96 hours, 50% inhibition of cell proliferation; read-out: Cytotoxicity activity IC50, A375 (melanoma). The procedure: as §1
A further test concerns PC3 (prostate). The experiment in a line: In vitro cytotoxic activity MTT assay, PC3. In kind it is cell-based. Particulars: Homo sapiens, PC-3; PC3 cells, exposed for 96 hours, 50% inhibition of cell proliferation; read-out: Cytotoxicity activity IC50, PC3 (prostate). How it is done: as §1
The next test concerns MCF7 (breast). The experiment in a line: In vitro cytotoxic activity MTT assay, MCF7. The test is classed as cell-based. Particulars: Homo sapiens; MCF7 cells, exposed for 96 hours, 50% inhibition of cell proliferation; read-out: Cytotoxicity activity IC50, MCF7 (breast). How it is done:
as §1

The subject of another test is MIAPaCa-2 (pancreas). The test can be described thus: In vitro cytotoxic activity MTT assay, MIAPaCa-2. The test is classed as cell-based. The following applies: Homo sapiens, MIA PaCa-2; MIAPaCa-2 cells, exposed for 96 hours, 50% inhibition of cell proliferation; read-out: Cytotoxicity activity IC50, MIAPaCa-2 (pancreas). How it is done:
as §1

Test [1] deals with T1, recombinant human CK2 (RRββ-holoenzyme) (Homo sapiens, UniProt P68400).
T1 construct: purchased Millipore
The test can be described thus: CK2 Kinase Assay (33P-ATP, filter plate). In kind it is biochemical. Particulars: recombinant human CK2, final ATP 15 μM, 10 min at 30° C.; read-out: protein kinase CK2 IC50. How it is done:
CK2 Kinase Assay was conducted using the protocol as described in Pierre F. et al; J. Med. Chem. 2011, 54, 635-654. The tested compounds in aqueous solution were added at a volume of 10 μL to a reaction mixture comprising 10 μL of assay dilution buffer (ADB; 20 mM MOPS, pH 7.2, 25 mM β-glycerol phosphate, 5 mM EGTA, 1 mM sodium orthovanadate, and 1 mM dithiothreitol), 10 μL of substrate peptide (RRRDDDSDDD, dissolved in ADB at a concentration of 1 mM), 10 μL of recombinant human CK2 (RRββ-holoenzyme, 25 ng dissolved in ADB; Millipore). Reactions were initiated by the addition of 10 μL of ATP solution (90% 75 mMMgCl2, 75 μM ATP (final ATP concentration:15 μM) dissolved in ADB; 10% [γ-33P] ATP (stock 1mCi/100 μL; 3000 Ci/mmol (Perkin-Elmer) and maintained for 10 min at 30° C. The reactions were quenched with 100 μL of 0.75% phosphoric acid and then transferred to and filtered through a phosphor cellulose filter plate (Millipore). After washing each well five times with 0.75% phosphoric acid, the plate was dried under vacuum for 5 min and, following the addition of 15 μL of scintillation fluid to each well, the residual radioactivity was measured using a Wallac […]. The IC50 values were derived from eight concentrations of test inhibitors.

The subject of a further test is H1299 (lung). The test can be described thus: In vitro cytotoxic activity MTT assay, H1299. Particulars: Homo sapiens, NCI-H1299; H1299 cells, exposed for 96 hours, 50% inhibition of cell proliferation; read-out: Cytotoxicity activity IC50, H1299 (lung). In kind it is cell-based. How it is done: as §1
Another test relates to HCT116 (colon). The test can be described thus: In vitro cytotoxic activity MTT assay, HCT116. The test is classed as cell-based. The following applies: Homo sapiens, HCT-116; HCT116 cells, exposed for 96 hours, 50% inhibition of cell proliferation; read-out: Cytotoxicity activity IC50, HCT116 (colon). The procedure:
as §1

T1 sequence (P68400 whole entry): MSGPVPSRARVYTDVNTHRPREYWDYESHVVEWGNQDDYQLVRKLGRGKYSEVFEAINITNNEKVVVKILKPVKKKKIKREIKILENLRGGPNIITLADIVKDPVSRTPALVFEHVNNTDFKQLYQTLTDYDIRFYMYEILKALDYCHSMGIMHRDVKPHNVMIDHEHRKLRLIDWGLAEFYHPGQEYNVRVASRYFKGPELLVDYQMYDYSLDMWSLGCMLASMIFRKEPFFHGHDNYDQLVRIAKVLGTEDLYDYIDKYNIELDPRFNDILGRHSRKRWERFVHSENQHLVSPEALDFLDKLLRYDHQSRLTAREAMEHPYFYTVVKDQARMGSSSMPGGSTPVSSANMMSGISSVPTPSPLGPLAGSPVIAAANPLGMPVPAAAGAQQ
T1 sequence (P67870 whole entry partner): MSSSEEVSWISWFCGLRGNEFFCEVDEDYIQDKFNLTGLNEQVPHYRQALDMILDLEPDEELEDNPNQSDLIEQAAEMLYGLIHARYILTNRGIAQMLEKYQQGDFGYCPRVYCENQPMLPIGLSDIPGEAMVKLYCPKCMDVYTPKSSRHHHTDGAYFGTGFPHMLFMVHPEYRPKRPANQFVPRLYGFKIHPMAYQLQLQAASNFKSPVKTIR

Consider `O=C(O)c1n[nH]c2c1nc(Nc1cccc(Cl)c1)c1ccncc12` [Compound 1, 5-((3-chlorophenyl)amino)-1H-pyrazolo[4,3-c][2,6]naphthyridine-3-carboxylic acid], for which the IC50 in the test on MDA-MB-231 (breast) was 4100 nM; in the test on HL60 (leukemia) it was 3000 nM; in the test on A375 (melanoma) it was 4300 nM; in the test with PC3 (prostate), 1800 nM; with MCF7 (breast), 4900 nM; in the test with MIAPaCa-2 (pancreas) it was 900 nM. For the same compound, the IC50 in [1] worked out at 31 nM; in the test on H1299 (lung), 2200 nM; with HCT116 (colon), 1900 nM.

By IC50 is commonly meant the point on the concentration scale where inhibition reaches its midpoint.
